Positions of bridges follow the written chain, without caps; N, C: chain ends. Non-standard residues stand in square brackets, D forms with d. Residues, ends and D or L forms follow the SMILES beside them. Cha = N[C@@H](CC1CCCCC1)C(=O)O; NMeNva = CCC[C@H](NC)C(=O)O; NMeAbu = CC[C@H](NC)C(=O)O; NMeC = CN[C@@H](CS)C(=O)O; NMeA = CN[C@@H](C)C(=O)O; dAbu = CC[C@@H](N)C(=O)O; dNMeA = CN[C@H](C)C(=O)O; Nva = CCC[C@H](N)C(=O)O; Abu = CC[C@H](N)C(=O)O; NPrGly = CCCNCC(=O)O; NEtG = CCNCC(=O)O
Details: not given

Row | SMILES | PAMPA Pe_avg [×10⁻⁶ cm/s]
1 | CCOC(=O)[C@@H]1CSCC(=O)N[C@H](CC)C(=O)N(C)[C@@H](C)C(=O)N[C@H](CC(C)C)C(=O)N2CCC[C@@H]2C(=O)N(CC)CC(=O)N[C@@H](CC(C)C)C(=O)N(C)[C@@H](C)C(=O)N[C@@H](CC(C)C)C(=O)N1C [JF206_ADD_DDLL_Ethyl] ({CH2CO}-[dAbu][NMeA][dL][dP][NEtG]L[NMeA]L[NMeC]-OEt; thioether N-9) | 0
2 | CCOC(=O)[C@@H]1CSCC(=O)N[C@H](CC)C(=O)N(C)[C@@H](C)C(=O)N[C@@H](CC(C)C)C(=O)N2CCC[C@@H]2C(=O)N(CC)CC(=O)N[C@H](CC(C)C)C(=O)N(C)[C@H](C)C(=O)N[C@@H](CC(C)C)C(=O)N1C [JF206_ADD_DLDD_Ethyl] ({CH2CO}-[dAbu][NMeA]L[dP][NEtG][dL][dNMeA]L[NMeC]-OEt; thioether N-9) | 0
3 | CCOC(=O)[C@@H]1CSCC(=O)N[C@H](CC)C(=O)N(C)[C@@H](C)C(=O)N[C@@H](CC(C)C)C(=O)N2CCC[C@H]2C(=O)N(CC)CC(=O)N[C@H](CC(C)C)C(=O)N(C)[C@H](C)C(=O)N[C@@H](CC(C)C)C(=O)N1C [JF206_ALD_DLDD_Ethyl] ({CH2CO}-[dAbu][NMeA]LP[NEtG][dL][dNMeA]L[NMeC]-OEt; thioether N-9) | 0
4 | CCOC(=O)[C@@H]1CSCC(=O)N[C@@H](CC)C(=O)N(C)[C@@H](C)C(=O)N[C@H](CC(C)C)C(=O)N2CCC[C@@H]2C(=O)N(CC)CC(=O)N[C@@H](CC(C)C)C(=O)N(C)[C@H](C)C(=O)N[C@@H](CC(C)C)C(=O)N1C [JF206_ADL_LDLD_Ethyl] ({CH2CO}-[Abu][NMeA][dL][dP][NEtG]L[dNMeA]L[NMeC]-OEt; thioether N-9) | 0

Same assay, conditions: PAMPA, 10 µM, pH 7.4

Row | SMILES | %R_avg [%] | Pe_avg [×10⁻⁶ cm/s]
5 | CCC[C@@H]1NC(=O)[C@H](C)N(C)C(=O)[C@H](CC(C)C)NC(=O)CSC[C@@H](C(=O)OCC)N(C)C(=O)[C@H](CC(C)C)NC(=O)[C@H](C)N(C)C(=O)[C@H](CC(C)C)NC(=O)[C@H](CC)N(C)C(=O)[C@H]2CCCN2C1=O [LC05, O=C(N(C)[C@H](C(OCC)=O)CSCC(N[C@H](C(N(C)[C@@H](C)C(N[C@@H](CCC)C(N1[C@H](CCC1)C(N(C)[C@@H](CC)C(N[C@H]2CC(C)C)=O)=O)=O)=O)=O)CC(C)C)=O)[C@H](CC(C)C)NC([C@H](C)N(C)C2=O)=O] ({CH2CO}-L[NMeA][Nva][dP][NMeAbu]L[NMeA]L[NMeC]-OEt; thioether N-9) | 7.6 | –
6 | CCOC(=O)[C@@H]1CSCC(=O)N[C@@H](CC(C)C)C(=O)N(CC)CC(=O)N[C@@H](CC(C)C)C(=O)N2CCC[C@@H]2C(=O)N(C)[C@@H](C)C(=O)N[C@@H](CC(C)C)C(=O)N(C)[C@@H](C)C(=O)N[C@@H](CC(C)C)C(=O)N1C [LB06, O=C(N(C)[C@H](C(OCC)=O)CSCC(N[C@H](C1=O)CC(C)C)=O)[C@H](CC(C)C)NC([C@H](C)N(C)C([C@H](CC(C)C)NC([C@H](C)N(C)C([C@@H]2N(C([C@H](CC(C)C)NC(CN1CC)=O)=O)CCC2)=O)=O)=O)=O] ({CH2CO}-L[NEtG]L[dP][NMeA]L[NMeA]L[NMeC]-OEt; thioether N-9) | 12.6 | –
7 | CCC[C@@H]1NC(=O)[C@H](C)N(C)C(=O)[C@H](CC(C)C)NC(=O)CSC[C@@H](C(=O)OCC)N(C)C(=O)[C@H](CC(C)C)NC(=O)[C@H](C)N(C)C(=O)[C@H](CC)NC(=O)[C@H](CCC)N(C)C(=O)[C@H]2CCCN2C1=O [LC03, O=C(N(C)[C@H](C(OCC)=O)CSCC(N[C@H](C(N(C)[C@@H](C)C(N[C@@H](CCC)C(N1[C@H](CCC1)C(N(C)[C@@H](CCC)C(N[C@H]2CC)=O)=O)=O)=O)=O)CC(C)C)=O)[C@H](CC(C)C)NC([C@H](C)N(C)C2=O)=O] ({CH2CO}-L[NMeA][Nva][dP][NMeNva][Abu][NMeA]L[NMeC]-OEt; thioether N-9) | 20.3 | –
8 | CCOC(=O)[C@@H]1CSCC(=O)N[C@@H](CC(C)C)C(=O)N(CC)CC(=O)N[C@@H](CC(C)C)C(=O)N2CCC[C@@H]2C(=O)N(C)[C@@H](C)C(=O)N[C@@H](CC2CCCCC2)C(=O)N(C)[C@@H](C)C(=O)N[C@@H](CC(C)C)C(=O)N1C [LB10, O=C(N(C)[C@H](C(OCC)=O)CSCC(N[C@H](C1=O)CC(C)C)=O)[C@H](CC(C)C)NC([C@H](C)N(C)C([C@H](CC2CCCCC2)NC([C@H](C)N(C)C([C@@H]3N(C([C@H](CC(C)C)NC(CN1CC)=O)=O)CCC3)=O)=O)=O)=O] ({CH2CO}-L[NEtG]L[dP][NMeA][Cha][NMeA]L[NMeC]-OEt; thioether N-9) | 8.0 | –
9 | CCC[C@@H]1NC(=O)[C@H](C)N(C)C(=O)[C@H](CC(C)C)NC(=O)CSC[C@@H](C(=O)OCC)N(C)C(=O)[C@H](CC(C)C)NC(=O)[C@H](C)N(C)C(=O)[C@H](CC(C)C)NC(=O)CN(CC)C(=O)[C@H]2CCCN2C1=O [LA05, O=C(N(C)[C@H](C(OCC)=O)CSCC(N[C@H](C(N(C)[C@@H](C)C(N[C@@H](CCC)C(N1[C@H](CCC1)C(N(CC)CC(N[C@H]2CC(C)C)=O)=O)=O)=O)=O)CC(C)C)=O)[C@H](CC(C)C)NC([C@H](C)N(C)C2=O)=O] ({CH2CO}-L[NMeA][Nva][dP][NEtG]L[NMeA]L[NMeC]-OEt; thioether N-9) | 12.8 | –
10 | CCOC(=O)[C@@H]1CSCC(=O)N[C@@H](CC(C)C)C(=O)N(C)[C@@H](C)C(=O)N[C@@H](CC(C)C)C(=O)N2CCC[C@@H]2C(=O)N(C)[C@@H](CC)C(=O)N[C@@H](CC2CCCCC2)C(=O)N(C)[C@@H](C)C(=O)N[C@@H](CC(C)C)C(=O)N1C [LC10, O=C(N(C)[C@H](C(OCC)=O)CSCC(N[C@H](C(N(C)[C@@H](C)C(N[C@@H](CC(C)C)C(N1[C@H](CCC1)C(N(C)[C@@H](CC)C(N[C@H]2CC3CCCCC3)=O)=O)=O)=O)=O)CC(C)C)=O)[C@H](CC(C)C)NC([C@H](C)N(C)C2=O)=O] ({CH2CO}-L[NMeA]L[dP][NMeAbu][Cha][NMeA]L[NMeC]-OEt; thioether N-9) | 10.5 | –
11 | CCC[C@@H]1NC(=O)[C@H](C)N(C)C(=O)[C@H](CC(C)C)NC(=O)CSC[C@@H](C(=O)OCC)N(C)C(=O)[C@H](CC(C)C)NC(=O)[C@H](C)N(C)C(=O)[C@H](CC)NC(=O)[C@H](CC)N(C)C(=O)[C@H]2CCCN2C1=O [LC01, O=C(N(C)[C@H](C(OCC)=O)CSCC(N[C@H](C(N(C)[C@@H](C)C(N[C@@H](CCC)C(N1[C@H](CCC1)C(N(C)[C@@H](CC)C(N[C@H]2CC)=O)=O)=O)=O)=O)CC(C)C)=O)[C@H](CC(C)C)NC([C@H](C)N(C)C2=O)=O] ({CH2CO}-L[NMeA][Nva][dP][NMeAbu][Abu][NMeA]L[NMeC]-OEt; thioether N-9) | 30.1 | –
12 | CCC[C@@H]1NC(=O)CN(CCC)C(=O)[C@H](CC(C)C)NC(=O)CSC[C@@H](C(=O)OCC)N(C)C(=O)[C@H](CC(C)C)NC(=O)[C@H](C)N(C)C(=O)[C@H](CC)NC(=O)[C@H](C)N(C)C(=O)[C@H]2CCCN2C1=O [LB03, O=C(N(C)[C@H](C(OCC)=O)CSCC(N[C@H](C1=O)CC(C)C)=O)[C@H](CC(C)C)NC([C@H](C)N(C)C([C@H](CC)NC([C@H](C)N(C)C([C@@H]2N(C([C@H](CCC)NC(CN1CCC)=O)=O)CCC2)=O)=O)=O)=O] ({CH2CO}-L[NPrGly][Nva][dP][NMeA][Abu][NMeA]L[NMeC]-OEt; thioether N-9) | 61.4 | –
13 | CCOC(=O)[C@@H]1CSCC(=O)N[C@@H](CC(C)C)C(=O)N(C)[C@@H](C)C(=O)N[C@@H](CC(C)C)C(=O)N2CCC[C@@H]2C(=O)N(CC)CC(=O)N[C@@H](CC2CCCCC2)C(=O)N(C)[C@@H](C)C(=O)N[C@@H](CC(C)C)C(=O)N1C [LA10, O=C(N(C)[C@H](C(OCC)=O)CSCC(N[C@H](C(N(C)[C@@H](C)C(N[C@@H](CC(C)C)C(N1[C@H](CCC1)C(N(CC)CC(N[C@H]2CC3CCCCC3)=O)=O)=O)=O)=O)CC(C)C)=O)[C@H](CC(C)C)NC([C@H](C)N(C)C2=O)=O] ({CH2CO}-L[NMeA]L[dP][NEtG][Cha][NMeA]L[NMeC]-OEt; thioether N-9) | 13.0 | 0
14 | CCC[C@@H]1NC(=O)[C@H](C)N(C)C(=O)[C@H](CC(C)C)NC(=O)CSC[C@@H](C(=O)OCC)N(C)C(=O)[C@H](CC(C)C)NC(=O)[C@H](C)N(C)C(=O)[C@H](CC)NC(=O)CN(CCC)C(=O)[C@H]2CCCN2C1=O [LA03, O=C(N(C)[C@H](C(OCC)=O)CSCC(N[C@H](C(N(C)[C@@H](C)C(N[C@@H](CCC)C(N1[C@H](CCC1)C(N(CCC)CC(N[C@H]2CC)=O)=O)=O)=O)=O)CC(C)C)=O)[C@H](CC(C)C)NC([C@H](C)N(C)C2=O)=O] ({CH2CO}-L[NMeA][Nva][dP][NPrGly][Abu][NMeA]L[NMeC]-OEt; thioether N-9) | 25.8 | –
15 | CCCN1CC(=O)N[C@@H](CC2CCCCC2)C(=O)N(C)[C@@H](C)C(=O)N[C@@H](CC(C)C)C(=O)N(C)[C@H](C(=O)OCC)CSCC(=O)N[C@@H](CC(C)C)C(=O)N(C)[C@@H](C)C(=O)N[C@@H](CC(C)C)C(=O)N2CCC[C@@H]2C1=O [LA12, O=C(N(C)[C@H](C(OCC)=O)CSCC(N[C@H](C(N(C)[C@@H](C)C(N[C@@H](CC(C)C)C(N1[C@H](CCC1)C(N(CCC)CC(N[C@H]2CC3CCCCC3)=O)=O)=O)=O)=O)CC(C)C)=O)[C@H](CC(C)C)NC([C@H](C)N(C)C2=O)=O] ({CH2CO}-L[NMeA]L[dP][NPrGly][Cha][NMeA]L[NMeC]-OEt; thioether N-9) | 9.2 | 0
16 | CCOC(=O)[C@@H]1CSCC(=O)N[C@@H](CC(C)C)C(=O)N(C)[C@@H](C)C(=O)N[C@@H](CC(C)C)C(=O)N2CCC[C@@H]2C(=O)N(C)[C@@H](CC)C(=O)N[C@@H](CC(C)C)C(=O)N(C)[C@@H](C)C(=O)N[C@@H](CC(C)C)C(=O)N1C [LC06, O=C(N(C)[C@H](C(OCC)=O)CSCC(N[C@H](C(N(C)[C@@H](C)C(N[C@@H](CC(C)C)C(N1[C@H](CCC1)C(N(C)[C@@H](CC)C(N[C@H]2CC(C)C)=O)=O)=O)=O)=O)CC(C)C)=O)[C@H](CC(C)C)NC([C@H](C)N(C)C2=O)=O] ({CH2CO}-L[NMeA]L[dP][NMeAbu]L[NMeA]L[NMeC]-OEt; thioether N-9) | 4.6 | –
17 | CCOC(=O)[C@@H]1CSCC(=O)N[C@@H](CC(C)C)C(=O)N(C)[C@@H](C)C(=O)N[C@@H](CC(C)C)C(=O)N2CCC[C@@H]2C(=O)N(CC)CC(=O)N[C@@H](CC(C)C)C(=O)N(C)[C@@H](C)C(=O)N[C@@H](CC(C)C)C(=O)N1C [LA06, O=C(N(C)[C@H](C(OCC)=O)CSCC(N[C@H](C(N(C)[C@@H](C)C(N[C@@H](CC(C)C)C(N1[C@H](CCC1)C(N(CC)CC(N[C@H]2CC(C)C)=O)=O)=O)=O)=O)CC(C)C)=O)[C@H](CC(C)C)NC([C@H](C)N(C)C2=O)=O] ({CH2CO}-L[NMeA]L[dP][NEtG]L[NMeA]L[NMeC]-OEt; thioether N-9) | 5.1 | –

Reference: paper PMC10885153, “Membrane Permeability in a Large Macrocyclic Peptide Driven by a Saddle-Shaped Conformation” (Journal of the American Chemical Society, 2024)
